# Measurements reported in patent publication US20080242724A1, “Ibopamine Maleate, Method for Preparing it and Pharmaceutical Compositions Containing It” (AZIENDE CHIM. RIUN. ANG. FRANC. A.C.R.A.F. S.P.A., priority 2004, published 2008).
# Where a name gives a salt, the structure may show the parent alone.
# Test system: male rabbits (New Zealand White)
# Test: Ocular tolerability (Draize) after repeated instillation
# Type: in vivo, rabbit
# Conditions: for Conjunctiva Lachrymation / Conjunctiva Reddening / Conjunctiva Swelling / Cornea Area of the cornea affected by opacity / Cornea Opacity / Iris: Draize score; for Conjunctiva Lachrymation / Conjunctiva Reddening / Conjunctiva Swelling / Cornea Area of the cornea affected by opacity / Cornea Opacity / Iris / Total Score: rabbit eye, 0.1 ml aqueous solution (corresponding to 1.79% by weight of ibopamine, pH 7.0) three times a day for fifteen days; for Total Score: sum of Draize scores; for local tolerability: compared with the hydrochloride, statement in words
# Protocol: Two aqueous solutions were used.
# The first contained 2% by weight of ibopamine hydrochloride (corresponding to 1.79% by weight of ibopamine) buffered to pH 7.0.
# The second contained 2.46% by weight of ibopamine maleate (corresponding to 1.79% by weight of ibopamine) buffered to pH 7.0.
# 12 male rabbits (New Zealand White) with an average weight of 2 kg and an average age of ten months were used, divided into two groups of six rabbits each. The first group was treated with 0.1 ml of the first test solution three times a day for fifteen days. The second group was treated with 0.1 ml of the second test solution three times a day for fifteen days.
# The tolerability was evaluated according to J. Draize et al., Pharmacol. Exp. Ther., 83, 377-390 (1944).
Compound,Conjunctiva Lachrymation,Conjunctiva Reddening,Conjunctiva Swelling,Cornea Area of the cornea affected by opacity,Cornea Opacity,Iris,Total Score,local tolerability (listed as ibopamine maleate),local tolerability (listed as maleate)
"CNCCc1ccc(OC(=O)C(C)C)c(OC(=O)C(C)C)c1 [Ibopamine hydrochloride, ibopamine hydrochloride, reference compound]",2,1,1,2,1,1,8,–,–
ibopamine maleate (1:1),1,1,0,1,0,0,3,better local tolerability,better local tolerability than the hydrochloride
